The record followed here is the pKa sets of Baltruschat and Czodrowski (2020).

Several values for one entry are separate records, joined by “and”; a condition that tells them apart may be missing. Equal entries are not always repeated.

Broadly, the pKa is the negative logarithm of the acid dissociation constant. A lower pKa goes with a group that gives up its proton readily. `COC(=O)Nc1ccc2c(Nc3ccc(NS(C)(=O)=O)cc3)c3ccccc3nc2c1` returned a pKa of 7.48.
The figure for `C[C@H](CO)Nc1nc(SCc2cccc(F)c2F)nc2[nH]c(=O)sc12` is 6.7; for `O=C(O)CCCc1ccc(N(CCCl)CCCl)cc1` it is 5.8; for `c1ccc(NC2=NCCN2)cc1` it is 10.1.
With `Nc1ncc[nH]1` the figure was 8.46; with `CNS(=O)(=O)Cc1ccc2[nH]cc(CCN(C)C)c2c1`, 9.5; with `COc1cc(NS(C)(=O)=O)ccc1Nc1c2ccccc2nc2c(C(N)=O)cccc12`, 6.37.
Regarding `BP(=O)(OC[C@H]1O[C@@H](n2cnc3c(N)nc(SC)nc32)[C@H](O)[C@@H]1O)OP(=O)(O)C(F)(F)P(=O)(O)O` (some centres not stated), the pKa worked out at 7.
With `COc1cccc(Nc2c3ccccc3nc3ccccc23)c1` the figure was 7.21; with `Br.Oc1noc2c1CNCC2`, 4.3.
The figure for `COc1cccc2c(Nc3ccc(NS(C)(=O)=O)cc3)c3ccccc3nc12` is 7.15; for `CN1C=CC(C2NC(C(Cl)(Cl)Cl)=CN2c2ccc(S(N)(=O)=O)cc2)C=C1` (configuration not stated) it is 7.89; for `CC(C)NC1=NS(=O)(=O)c2cc(Cl)ccc2N1` it is 9.51.
Compound `CS(=O)(=O)Nc1ccc(Nc2c3ccccc3nc3ccncc23)cc1` had a pKa of 5.73.
With `CCOC(=O)c1ccc(N)cc1` the figure was 2.5; with `c1c[nH]nn1`, 1.17; with `COC(=O)c1ccccc1Nc1c2ccccc2nc2ccccc12`, 6.3.
With `COc1cc(NS(C)(=O)=O)ccc1Nc1c2ccccc2nc2cc(C#N)ccc12` the figure was 5.94; with `CN(C)c1ccc(Nc2c3ccccc3nc3ccccc23)cc1`, 8.46.
The figure for `CN(C)CCNC1=Nc2cccc3cccc(c23)N1` is 6; for `CS(=O)(=O)c1ccc(Nc2c3ccccc3nc3ccccc23)cc1` it is 5.81; for `COC(=O)[C@H]1[C@H]2C[C@@H]3c4[nH]c5cc(OC)ccc5c4CCN3C[C@H]2C[C@@H](OC(=O)c2cc(OC)c(OC)c(OC)c2)[C@@H]1OC` it is 7.25.
`O=C(Nc1ccc(Nc2c3ccccc3nc3ccccc23)cc1)c1ccccc1` returned a pKa of 7.39.
The figure for `CCc1cccc2c3c([nH]c12)C(CC)(CC(=O)O)OCC3` (configuration not stated) is 4.7; for `COCC1CC(C(=O)NC[C@H]2CCCO2)CN(Cc2nc(N3CCOCC3)oc2C)C1` (some centres not stated) it is 7.8; for `COc1cc(NS(C)(=O)=O)ccc1Nc1c2ccccc2nc2cc(I)ccc12` it is 6.77.
With `CN1CCN(Cc2ccc(S(=O)(=O)c3csc(S(N)(=O)=O)c3)cc2)CC1.Cl` the figure was 7.4.
The figure for `CCN(CC)CCCN1c2cc(F)ccc2CCc2ccc(F)cc21.Cl` is 7.6; for `O=C(c1ccc(C(F)(F)F)cc1)N1CCC(=Cc2ccc(C3=NCCO3)cc2)CC1` it is 4.7; for `O=C(NCc1ccccc1)C1=CC2c3ccccc3C1c1ccccc12` it is -2.01.
In the case of `Cc1ccc(N=C2NCCN2)c(Cl)c1`, the pKa amounted to 9.41.
As for `CCS(=O)(=O)c1nc(S(=O)(=O)c2ccc(Cl)cc2)c(N2CCc3ccccc3C2)s1`, the pKa was -8.66.
The figure for `COc1cc(NS(C)(=O)=O)ccc1Nc1c2ccccc2nc2cc(Br)ccc12` is 6.84; for `Oc1nsc2c1CCNC2` it is 8.5.
The figure for `COc1ccc([C@@H]2Sc3ccccc3N(CCN(C)C)C(=O)[C@@H]2OC(C)=O)cc1.Cl` is 8.06.
The figure for `CC(C)c1ccccc1Nc1c2ccccc2nc2ccccc12` is 7.64; for `COC(=O)C1=C(C)NC(C)=C(C(=O)OCCN(C)Cc2ccccc2)C1c1cccc([N+](=O)[O-])c1` (configuration not stated) it is 7.6; for `CNCc1cn(S(=O)(=O)c2cccnc2)c(-c2cccnc2F)c1F` it is 8.54.
The compound `Cc1cnc(NCCc2ccccc2)c(=O)n1CC(=O)NCc1ccc(C(=N)N)s1` registered a pKa of 10.3.
With `CC(C)(C)NCC(O)c1cc(O)cc(O)c1` (configuration not stated) the figure was 8.7; with `CNc1ccc(Nc2c3ccccc3nc3ccccc23)cc1`, 8.42.
With `COc1cc(NS(C)(=O)=O)ccc1Nc1c2ccccc2nc2cc(Cl)ccc12` the figure was 6.84; with `CC(=O)Nc1ccc2c(Nc3ccc(NS(C)(=O)=O)cc3)c3ccccc3[nH+]c2c1.CS(=O)(=O)[O-]`, 7.34; with `Cc1nc2c(/C=C/Cc3ccccc3)cccn2c1CC#N`, 5.7.
With `Brc1cc(Br)c(N=C2NCCN2)c(Br)c1` the figure was 7.46.
Compound `Oc1ccccc1Nc1c2ccccc2nc2ccccc12` displayed a pKa of 7.8.
With `CC(=O)N[C@@H](Cc1cc(F)cc(F)c1)[C@H](O)CNC1(c2cccc(C(C)(C)C)c2)CC1` the figure was 6.6; with `NCCCC(F)(F)F`, 9.7; with `CCC12CCC(=O)C=C1c1c(cc(OCC(=O)O)c(Cl)c1Cl)C2` (configuration not stated), 3.6.
`O=S(=O)(O)CCc1ccc(Nc2c3ccccc3nc3ccccc23)cc1` came in with a pKa of 7.77.
`Cc1ccc(N=C2NCCN2)c(C)c1` came in with a pKa of 10.6.
The figure for `c1ccc(CC2CCN(CCCc3c[nH]c4ccc(-n5cnnc5)cc34)CC2)cc1` is 9.7; for `CCC12CCC(=O)C=C1c1c(cc(OCC(=O)OC(C)(C)C(=O)O)c(Cl)c1Cl)C2` (configuration not stated) it is 3.8.
With `Cc1ccccc1Nc1c2ccccc2nc2ccccc12` the figure was 7.76.
With `CS(=O)(=O)Nc1ccc(Nc2c3ccccc3nc3cc([N+](=O)[O-])ccc23)cc1` the figure was 5.52; with `CS(=O)(=O)Nc1ccc(Nc2c3ccccc3nc3cccnc23)cc1`, 6.9.
`Cc1nc(N)nc(C)c1CNC(=O)Cn1c(C)ccc(NS(=O)(=O)Cc2ccccc2)c1=O` showed a pKa of 4.7.
With `BP(=O)(OC[C@H]1O[C@@H](n2cnc3c(N)nc(SC)nc32)[C@H](O)[C@@H]1O)OP(=O)(O)C(Cl)(Cl)P(=O)(O)O` (some centres not stated) the figure was 7; with `CCOc1cccc2c(Nc3ccc(NS(C)(=O)=O)cc3OC)c3ccccc3nc12`, 7.37.
With `O=c1n(CCCN2CCN(c3cccc(Cl)c3)CC2)nc2ccccn12` the figure was 6.7 and 6.73 and 6.79; with `BP(=O)(OC[C@H]1O[C@@H](n2cnc3c(N)ncnc32)[C@H](O)[C@@H]1O)OP(=O)(O)CP(=O)(O)O` (some centres not stated), 8.4.
`BP(=O)(OC[C@H]1O[C@@H](n2cnc3c(N)ncnc32)[C@H](O)[C@@H]1O)OP(=O)(O)C(Cl)(Cl)P(=O)(O)O` (some centres not stated) yielded a pKa of 7.
As to `Cc1cc(Cl)c(N=C2NCCN2)c(Cl)c1`, the pKa was found to be 8.29.
The figure for `COc1ccc(CCNCCCC(C#N)(c2ccc(OC)c(OC)c2)C(C)C)cc1OC` (configuration not stated) is 9.87; for `CCCC12CCC(=O)C=C1c1c(cc(OCC(=O)O)c(Cl)c1Cl)C2` (configuration not stated) it is 3.6.
As to `Cn1ccnc1`, the pKa worked out at 7.12.
With `Cl.Fc1ccc2c(c1)N(CCCN1CCCC1)c1cc(F)ccc1CC2` the figure was 7.6; with `COc1cc(Cl)c(N=C2NCCN2)c(Cl)c1`, 8.57.
With `COc1cc(NS(C)(=O)=O)ccc1Nc1c2ccccc2nc2cc(NC(C)=O)ccc12` the figure was 7.56; with `Cc1ncc2n1-c1ccc(Cl)cc1C(c1ccccc1F)=NC2`, 5.44; with `Cc1nc(N)ncc1CNC(=O)Cn1c(C)cnc(NCCc2ccccc2)c1=O`, 4.2.
With `C[N+](C)(C)Cc1ccc(S)cc1` the figure was 5.5; with `NCCCF`, 9.9.
For `Cc1ccc(NS(=O)(=O)Cc2ccccc2)c(=O)n1CC(=O)NCc1ccc(C(=N)N)cc1`, the pKa stood at 10.2.
`FC(F)(F)c1c(N2CCC(c3ccccc3)CC2)ccn2c(CC3CC3)nnc12`: the pKa was 4.1.
`c1ccc(-c2ncc[nH]2)nc1` had a pKa of 5.36.
Turning to `Cc1ccc(C(=O)c2ccc(CC(=O)O)n2C)cc1`, the pKa is 3.5.
The figure for `COc1ccc(Cl)cc1C(=O)NCCc1ccc(S(=O)(=O)NC(=O)NC2CCCCC2)cc1` is 5.3.
The figure for `O=P(O)(O)CCc1ccccc1` is 2.34; for `CS(=O)(=O)Nc1ccc(Nc2c3ccccc3nc3ccc(N)cc23)cc1` it is 7.15.
With `CC(=O)N[C@@H](Cc1cc(F)cc(F)c1)[C@H](O)CNC1(c2cc(C(C)(C)C)ncn2)CCCCC1` the figure was 6.7; with `Oc1cc(C2=CCNCC2)on1`, 9.4.
Compound `Fc1ccc(Nc2c3ccccc3nc3ccccc23)cc1` showed a pKa of 7.5.
The figure for `CN(C)CCC1(Cc2ccc(C(C)(C)C)cc2)COC1` is 9.2; for `CCCOC(=O)CN(CCN(CCN(CC(=O)O)CC(=O)O)CC(=O)O)CC(=O)O` it is 1.8; for `CCCS(=O)(=O)Nc1ccc(Nc2c3ccccc3nc3ccccc23)cc1` it is 7.2.
The figure for `N[C@@H](CCC(=O)N[C@@H](CS)C(=O)NCC(=O)O)C(=O)O` is 8.7.
The compound `FC1(Cc2ccccc2)CCN(CCCc2c[nH]c3ccc(-n4cnnc4)cc23)CC1` came in with a pKa of 8.8.
The figure for `c1nnn[nH]1` is -3.
With `CC(=O)Nc1ccc2c(Nc3ccc(NS(C)(=O)=O)cc3)c3ccccc3nc2c1` the figure was 7.34.
The figure for `CS(=O)(=O)Nc1ccc(Nc2c3ccccc3nc3ccccc23)c(N)c1` is 7.65; for `Cl.NS(=O)(=O)c1cc(S(=O)(=O)c2ccc(CN3CCOCC3)cc2)cs1` it is 5.28.
The compound `CN(C)CCCN1c2cc(F)ccc2CCc2ccc(F)cc21.Cl` displayed a pKa of 7.6.
The figure for `CS(=O)(=O)NCc1ccccc1Nc1c2ccccc2nc2ccccc12` is 7.17.
With `BP(=O)(OC[C@H]1O[C@@H](n2cnc3c(N)nc(SC)nc32)[C@H](O)[C@@H]1O)OP(=O)(O)CP(=O)(O)O` (some centres not stated) the figure was 8.4; with `CC(C)(C)NCC(O)c1ccc(O)c(CO)c1` (configuration not stated), 9.3; with `O=S(=O)(c1cccc(F)c1)c1ccc2c3c(oc2c1)C1(CCCOC1)NCC3` (configuration not stated), 7.5.
With `CNCCCC12CCC(c3ccccc31)c1ccccc12` the figure was 10.5; with `CNc1ccc([N+](=O)[O-])c2c(NCCCN(C)C)ccnc12`, 4.22; with `Cc1nc2c(OCc3ccccc3)nccn2c1N`, 4.6.
For the compound `CN1CC[C@H](N(C)C(=O)N2CC(c3cc(F)ccc3F)=C[C@@]2(CO)c2ccccc2)[C@H](F)C1`, the pKa came out at 7.6.
As for `Ic1ccccc1Nc1c2ccccc2nc2ccccc12`, the pKa worked out at 6.47.
